Source: patent publication US10934310B2, “Inhibitors of Bruton's tyrosine kinase and method of their use” (JANSSEN PHARMACEUTICA NV, priority 2015, dated 2021)

target: unphosphorylated-BTK kinase domain (UP-BTK), GST-tagged human BTK (389-659aa) (Homo sapiens (Human), UniProt Q06187); experiment: BTK Kinase Lanthascreen Binding Assay; conditions: compound, 50 nM Tracer 236, 2 nM anti-GST antibody, 60 minutes; pIC50 = negative log of the IC50 in molar
Experimental: BTK Kinase Lanthascreen Binding Assay:
A BTK kinase lanthascreen binding assay monitors compound binding to unphosphorylated-BTK kinase domain (UP-BTK), by competing with a fluorescent labeled tracer. […] Data were analyzed using Xlfit™ version 5.3 from ID Business Solutions (Guildford), Microsoft Excel add-in. pIC50 refers to the negative log of the IC50 in molar.

Chain of unphosphorylated-BTK kinase domain (UP-BTK), GST-tagged human BTK (389-659aa) (Q06187 389-659): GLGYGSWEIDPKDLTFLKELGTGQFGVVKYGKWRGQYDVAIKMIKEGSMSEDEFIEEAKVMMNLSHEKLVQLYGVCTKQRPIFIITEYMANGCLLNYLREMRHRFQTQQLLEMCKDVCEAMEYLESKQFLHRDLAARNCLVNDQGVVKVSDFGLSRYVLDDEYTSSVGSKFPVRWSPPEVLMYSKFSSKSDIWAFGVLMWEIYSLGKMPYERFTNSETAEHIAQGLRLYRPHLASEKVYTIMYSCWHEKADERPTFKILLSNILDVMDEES

Row | Structure (SMILES) | BTK_I_binding pIC50
1 | Cc1cc(Oc2ccccc2)ccc1N1C(=O)Nc2c(C(=O)N[C@@H]3CCC[C@H](N(C)C)C3)sc3nccc1c23 [Example 24, N-((1R,3S)-3-(Dimethylamino)cyclohexyl)-5-(2-methyl-4-phenoxyphenyl)-4-oxo-4,5-dihydro-3H-1-thia-3,5,8-triazaacenaphthylene-2-carboxamide] | 6.59
2 | Cc1cc(Oc2ccccc2)ccc1N1C(=O)Nc2c(C(=O)N[C@H]3CC[C@@H](N)CC3)sc3nccc1c23 [Example 25, N-((1S,4S)-4-Aminocyclohexyl)-5-(2-methyl-4-phenoxyphenyl)-4-oxo-4,5-dihydro-3H-1-thia-3,5,8-triazaacenaphthylene-2-carboxamide] | 6.66
3 | CCC(=O)N[C@@H]1CCC[C@H]1NC(=O)c1sc2nccc3c2c1NC(=O)N3c1ccc(Oc2ccccc2)cc1C [Example 26, 5-(2-Methyl-4-phenoxyphenyl)-4-oxo-N-((1R,2R)-2-propionamidocyclopentyl)-4,5-dihydro-3H-1-thia-3,5,8-triazaacenaphthylene-2-carboxamide] | 6.69
4 | Cc1cc(Oc2ccccc2)ccc1N1C(=O)Nc2c(C(=O)NC3CCCC3)sc3nccc1c23 [Example 28, N-Cyclopentyl-5-(2-methyl-4-phenoxyphenyl)-4-oxo-4,5-dihydro-3H-1-thia-3,5,8-triazaacenaphthylene-2-carboxamide] | 6.67
5 | Cc1cc(Oc2ccccc2)ccc1N1C(=O)Nc2c(C(=O)N[C@@H]3CCC[C@H]3N(C)C)sc3nccc1c23 [Example 29, N-((1R,2R)-2-(Dimethylamino)cyclopentyl)-5-(2-methyl-4-phenoxyphenyl)-4-oxo-4,5-dihydro-3H-1-thia-3,5,8-triazaacenaphthylene-2-carboxamide] | 6.81
6 | Cc1cc(Oc2ccccc2)ccc1N1C(=O)Nc2c(C(=O)N[C@@]34C[C@@H]5C[C@@H](C[C@@](O)(C5)C3)C4)sc3nccc1c23 [Example 30, N-((1r,3s,5R,7S)-3-Hydroxyadamantan-1-yl)-5-(2-methyl-4-phenoxyphenyl)-4-oxo-4,5-dihydro-3H-1-thia-3,5,8-triazaacenaphthylene-2-carboxamide] | 6.36
7 | CNC1CCCCC1NC(=O)c1sc2nccc3c2c1NC(=O)N3c1ccc(Oc2ccccc2)cc1C (stereo not shown) [Example 31, 5-(2-Methyl-4-phenoxyphenyl)-N-(2-(methylamino)cyclohexyl)-4-oxo-4,5-dihydro-3H-1-thia-3,5,8-triazaacenaphthylene-2-carboxamide] | 6.66
8 | Cc1cc(Oc2ccccc2)ccc1N1C(=O)Nc2c(C(=O)N[C@H]3CCC[C@@H]3N(C)C)sc3nccc1c23 [Example 32, N-((1S,2S)-2-(Dimethylamino)cyclopentyl)-5-(2-methyl-4-phenoxyphenyl)-4-oxo-4,5-dihydro-3H-1-thia-3,5,8-triazaacenaphthylene-2-carboxamide] | 7.12
9 | CC(=O)N[C@H]1CCCC[C@H]1NC(=O)c1sc2nccc3c2c1NC(=O)N3c1ccc(Oc2ccccc2)cc1C [Example 33, N-((1R,2S)-2-Acetamidocyclohexyl)-5-(2-methyl-4-phenoxyphenyl)-4-oxo-4,5-dihydro-3H-1-thia-3,5,8-triazaacenaphthylene-2-carboxamide] | 6.98
10 | CCC(=O)N[C@H]1CCC[C@H]1NC(=O)c1sc2nccc3c2c1NC(=O)N3c1ccc(Oc2ccccc2)cc1C [Example 34, 5-(2-Methyl-4-phenoxyphenyl)-4-oxo-N-((1R,2S)-2-propionamidocyclopentyl)-4,5-dihydro-3H-1-thia-3,5,8-triazaacenaphthylene-2-carboxamide] | 6.91
11 | CCC(=O)N[C@H]1CCCC[C@H]1NC(=O)c1sc2nccc3c2c1NC(=O)N3c1ccc(Oc2ccccc2)cc1C [Example 35, 5-(2-Methyl-4-phenoxyphenyl)-4-oxo-N-((1R,2S)-2-propionamidocyclohexyl)-4,5-dihydro-3H-1-thia-3,5,8-triazaacenaphthylene-2-carboxamide] | 6.87
12 | CC(=O)N[C@H]1CCC[C@H]1NC(=O)c1sc2nccc3c2c1NC(=O)N3c1ccc(Oc2ccccc2)cc1C [Example 37, N-((1R,2S)-2-Acetamidocyclopentyl)-5-(2-methyl-4-phenoxyphenyl)-4-oxo-4,5-dihydro-3H-1-thia-3,5,8-triazaacenaphthylene-2-carboxamide] | 6.68
13 | Cc1cc(Oc2ccccc2)ccc1N1C(=O)Nc2c(C(=O)N[C@@H]3CCCC[C@H]3N)sc3nccc1c23 [Example 38, N-((1R,2R)-2-Aminocyclohexyl)-5-(2-methyl-4-phenoxyphenyl)-4-oxo-4,5-dihydro-3H-1-thia-3,5,8-triazaacenaphthylene-2-carboxamide] | 6.68
14 | Cc1cc(Oc2ccccc2)ccc1N1C(=O)Nc2c(C(=O)N[C@H]3CCC[C@H]3O)sc3nccc1c23 [Example 39, N-((1S,2R)-2-Hydroxycyclopentyl)-5-(2-methyl-4-phenoxyphenyl)-4-oxo-4,5-dihydro-3H-1-thia-3,5,8-triazaacenaphthylene-2-carboxamide] | 6.51
15 | CC(=O)N[C@H]1CCC[C@@H]1NC(=O)c1sc2nccc3c2c1NC(=O)N3c1ccc(Oc2ccccc2)cc1C [Example 40, N-((1S,2S)-2-Acetamidocyclopentyl)-5-(2-methyl-4-phenoxyphenyl)-4-oxo-4,5-dihydro-3H-1-thia-3,5,8-triazaacenaphthylene-2-carboxamide] | 6.40
16 | Cc1cc(Oc2ccccc2)ccc1N1C(=O)Nc2c(C(=O)N[C@H]3CCC[C@@H]3N)sc3nccc1c23 [Example 41, N-((1S,2S)-2-Aminocyclopentyl)-5-(2-methyl-4-phenoxyphenyl)-4-oxo-4,5-dihydro-3H-1-thia-3,5,8-triazaacenaphthylene-2-carboxamide] | 6.37
17 | CCC(=O)N[C@@H]1CCCC[C@@H]1NC(=O)c1sc2nccc3c2c1NC(=O)N3c1ccc(Oc2ccccc2)cc1C [Example 42, 5-(2-Methyl-4-phenoxyphenyl)-4-oxo-N-((1S,2R)-2-propionamidocyclohexyl)-4,5-dihydro-3H-1-thia-3,5,8-triazaacenaphthylene-2-carboxamide] | 6.24
18 | Cc1cc(Oc2ccccc2)ccc1N1C(=O)Nc2c(C(=O)N[C@@H]3CCCC[C@H]3N(C)C)sc3nccc1c23 [Example 43, N-((1R,2R)-2-(Dimethylamino)cyclohexyl)-5-(2-methyl-4-phenoxyphenyl)-4-oxo-4,5-dihydro-3H-1-thia-3,5,8-triazaacenaphthylene-2-carboxamide] | 6.23
19 | CC(=O)N[C@@H]1CCCC[C@@H]1NC(=O)c1sc2nccc3c2c1NC(=O)N3c1ccc(Oc2ccccc2)cc1C [Example 44, N-((1S,2R)-2-Acetamidocyclohexyl)-5-(2-methyl-4-phenoxyphenyl)-4-oxo-4,5-dihydro-3H-1-thia-3,5,8-triazaacenaphthylene-2-carboxamide] | 6.17
